Results published in patent US4374845A, “1-(7-Carboxy-2-octynyl)imidazole derivatives, pharmaceutical compositions and use” (Kissei Pharmaceutical Co., priority 1980, dated 1983).
Counter-ions that a name gives are not always drawn.

Target: T1, thromboxane synthetase from rabbit platelet microsomes (Oryctolagus cuniculus, UniProt G1TAZ9)
T1 construct: thromboxane synthetase from rabbit platelet microsomes; from tissue; host or cells: rabbit platelet microsomes
T1 sequence (G1TAZ9 1-530): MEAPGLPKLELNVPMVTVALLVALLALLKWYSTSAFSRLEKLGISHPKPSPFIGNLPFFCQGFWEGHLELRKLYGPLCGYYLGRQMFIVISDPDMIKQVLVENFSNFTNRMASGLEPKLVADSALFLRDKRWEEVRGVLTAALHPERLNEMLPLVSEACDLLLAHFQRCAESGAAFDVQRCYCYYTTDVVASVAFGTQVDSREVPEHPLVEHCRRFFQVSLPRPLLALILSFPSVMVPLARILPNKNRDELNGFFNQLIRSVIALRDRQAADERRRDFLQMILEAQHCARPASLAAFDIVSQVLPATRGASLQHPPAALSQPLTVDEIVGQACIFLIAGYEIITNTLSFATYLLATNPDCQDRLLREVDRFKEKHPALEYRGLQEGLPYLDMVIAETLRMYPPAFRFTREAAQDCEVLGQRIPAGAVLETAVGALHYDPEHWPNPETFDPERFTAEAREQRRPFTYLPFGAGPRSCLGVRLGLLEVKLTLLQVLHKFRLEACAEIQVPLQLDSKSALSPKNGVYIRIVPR
Assay: inhibition of thromboxane synthetase from rabbit platelet microsomes
Format: biochemical
Details: standard laboratory tests, read-out: molar concentration producing 50% inhibition of thromboxane synthetase
Description: For example, in standard laboratory tests, 1-(7-carboxy-7-methyl-2-octynyl)imidazole hydrochloride produce a 50% inhibition of thromboxane synthetase from rabbit platelet microsomes at the molar concentrations of 9×10^-9.

Q: Which IC50 does the source give for CC(C)(CCCC#CCn1ccnc1)C(=O)O [Example 2, 1-(7-carboxy-7-methyl-2-octynyl)imidazole hydrochloride] here?
A: 9 nM
